# Test results as given in patent publication US20220033434A1, “ANDROGEN RECEPTOR NUCLEIC ACIDS AND USES THEREOF” (Avidity Biosciences, Inc., priority 2016, published 2022).
# In the oligonucleotide strings, read from the 5' end, every base follows the letter of its sugar. An asterisk marks phosphorothioate; unmarked linkages are phosphodiester. Other units and linkages are bracketed, terminal groups are in braces. A string of capitals states the bases alone. d = 2'-deoxy (DNA); m = 2'-O-methyl; f = 2'-fluoro
# Tests used:
# Type in all cases: cell-based, human
# AR-SV(3) = assay: AR protein knock-down by Western blot after siRNA transfection in 22RV1 cells: AR-SV(3); details: 5 nM siRNA, 50 h post transfection, compared to controls
# Method in brief: (§1)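 Western read-out: AR detected with an antibody to an N-terminal region shared by full-length AR and splice variants, normalised against α-tubulin, fluorescent secondaries. Cells received 5 nM siRNA (final) by lipid transfection; harvest at 50 h for 22RV1, 72 h for LNCaP.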
# AR FL(1) = assay: AR protein knock-down by Western blot after siRNA transfection in 22RV1 cells: AR FL(1); details: 5 nM siRNA, 50 h post transfection, compared to controls
# Method in brief: as §1
# AR-SV(2) = assay: AR protein knock-down by Western blot after siRNA transfection in 22RV1 cells: AR-SV(2); details: 5 nM siRNA, 50 h post transfection, compared to controls
# Method in brief: as §1
# AR mRNA [1] = assay: AR mRNA downregulation by RT-qPCR at 5 nM siRNA in LNCaP cells; details: 24 hrs post-transfection
# Experimental: (§2) Focusing on siRNAs targeting AR sequences exons 1 and 2, the ability of these siRNAs to downregulate AR mRNA at a concentration of 5 nM was determined by RT-qPCR. For this purpose, siRNAs were transfected into 22RV1 and LNCaP cells as described above. At 24 hrs post-transfection, RNA was harvested from cells using a Qiagen RNeasy® Plus Mini Kit or Stratec InviTrap® RNA Cell HTS96 kit. The concentration of each isolated RNA was determined via A260 measurement using a NanoDrop spectrophotometer. RNA samples were reverse transcribed to cDNA using the High Capacity RNA to cDNA Kit (Life Technologies) according to the manufacturer's instructions. cDNA samples were then quantified by qPCR using AR-specific probes and results normalized to either endogenous β-actin or PPIB using the standard 2^−ΔΔCt method. These studies identified 6 siRNAs that at a concentration of 5 nM down regulated AR mRNA in 22RV1 and LNCaP cells by more than 80% compared to controls (Table 4).
# [2] = system: AR FL (full length AR T877A LBD mutant); assay: AR protein knock-down by Western blot after siRNA transfection in LNCaP cells: AR FL; details: 5 nM siRNA, 72 h post transfection, compared to controls
# Method in brief: as §1
# AR mRNA [3] = assay: AR mRNA downregulation by RT-qPCR at 5 nM siRNA in 22RV1 cells; details: 24 hrs post-transfection
# Experimental: as §2
# AR mRNA [4] = assay: AR mRNA IC50 and maximal KD, siRNA at various concentrations, 22RV1 cells, qPCR probes exon junctions 1/2 or 4/5
# Experimental: as §2
# (§3) To determine the concentration required to reduce AR expression by 50% (IC50) and maximal KD activity, these siRNAs were transfected into LNCaP, C4-2, and 22RV1 cells at various concentrations starting at 100 nM. C4-2 (MD Anderson) is an LNCaP subline that has been selected for resistance against clinically used AR antagonists (Wu et al., “Derivation of androgen-independent human LNCaP prostatic cancer cell sublines: Role of bone stromal cells,” International J Cancer 1994; 57:406-412). Cells were harvested 48 h post-transfection; RNA was prepared and analyzed as stated above. For these experiments, specific AR qPCR probes located at the exon junctions 1/2 or 4/5 were used that recognize most mRNAs of relevant AR isoforms or primarily full length AR mRNA, respectively. All tested siRNAs lowered AR expression with subnanomolar potency to 70% in 22RV1 cells and to ≥90% in LNCaP and C4-2 cells (Table 5). […]
# AR mRNA [5] = assay: AR mRNA IC50 and maximal KD, siRNA at various concentrations, LNCaP cells, qPCR probes exon junctions 1/2 or 4/5
# Experimental: as §2, §3
# AR mRNA [6] = assay: AR mRNA IC50 and maximal KD, siRNA at various concentrations, C4-2 cells, qPCR probes exon junctions 1/2 or 4/5
# Experimental: as §2, §3
# [7] = AR qPCR probe at exon junction 1/2, 48 h post-transfection
# [8] = AR qPCR probe at exon junction 4/5, 48 h post-transfection
Substance,% KD AR Protein 22RV1 AR-SV(3) (AR-SV(3)),% KD AR Protein 22RV1 AR FL(1) (AR FL(1)),% KD AR Protein 22RV1 AR-SV(2) (AR-SV(2)),% KD AR RNA LNCaP (AR mRNA [1]),% KD AR Protein LNCaP AR FL [2],% KD AR RNA 22RV1 (AR mRNA [3]),"max KD (%), 22RV1, Exon 1/2 (AR mRNA [4]; [7])","IC50 (AR mRNA [4]; AR qPCR probe at exon junction 1/2, 48 h post-transfection, read-out: IC50 (nM), 22RV1, Exon 1/2)","max KD (%), 22RV1, Exon 4/5 (AR mRNA [4]; [8])","IC50 (AR mRNA [4]; AR qPCR probe at exon junction 4/5, 48 h post-transfection, read-out: IC50 (nM), 22RV1, Exon 4/5)","max KD (%), LNCaP, Exon 1/2 (AR mRNA [5]; [7])","IC50 (AR mRNA [5]; AR qPCR probe at exon junction 1/2, 48 h post-transfection, read-out: IC50 (nM), LNCaP, Exon 1/2)","max KD (%), LNCaP, Exon 4/5 (AR mRNA [5]; [8])","IC50 (AR mRNA [5]; AR qPCR probe at exon junction 4/5, 48 h post-transfection, read-out: IC50 (nM), LNCaP, Exon 4/5)","max KD (%), C4-2, Exon 1/2 (AR mRNA [6]; [7])","IC50 (AR mRNA [6]; AR qPCR probe at exon junction 1/2, 48 h post-transfection, read-out: IC50 (nM), C4-2, Exon 1/2)","max KD (%), C4-2, Exon 4/5 (AR mRNA [6]; [8])","IC50 (AR mRNA [6]; AR qPCR probe at exon junction 4/5, 48 h post-transfection, read-out: IC50 (nM), C4-2, Exon 4/5)"
"XD-01813: AR siRNA with chemical modification, Id # 1201; sense X05321 (SEQ ID NO: 151), antisense X05322 (SEQ ID NO: 152) (sense mGmCfGmUfGmCfGmCfGmAfAmGfUmGfAmUfCmCfAdT*dT; antisense fUfGmGfAmUfCmAfCmUfUmCfGmCfGmCfAmCfGmCdT*dT)",80%,73%,77%,66%,98%,53%,–,–,–,–,–,–,–,–,–,–,–,–
"XD-01825: AR siRNA with chemical modification, Id # 2814; sense X05345 (SEQ ID NO: 175), antisense X05346 (SEQ ID NO: 176) (sense mGmCfUmUfCmUfGmGfGmUfGmUfCmAfCmUfAmUfGdT*dT; antisense fCfAmUfAmGfUmGfAmCfAmCfCmCfAmGfAmAfGmCdT*dT)",95%,90%,93%,82%,91%,91%,53.5%,0.067 nM,60.7%,0.055 nM,82.5%,0.02 nM,84.9%,0.018 nM,83.5%,0.024 nM,84.6%,0.026 nM
"XD-01820: AR siRNA with chemical modification, Id # 2189; sense X05335 (SEQ ID NO: 165), antisense X05336 (SEQ ID NO: 166) (sense mGmUfAmCfCmAfGmAfGmUfCmGfCmGfAmCfUmAfCdT*dT; antisense fGfUmAfGmUfCmGfCmGfAmCfUmCfUmGfGmUfAmCdT*dT)",91%,85%,91%,59%,100%,46%,–,–,–,–,–,–,–,–,–,–,–,–
"XD-01816: AR siRNA with chemical modification, Id # 1984; sense X05327 (SEQ ID NO: 157), antisense X05328 (SEQ ID NO: 158) (sense mGmCfAmAfAmGfGmUfUmCfUmCfUmGfCmUfAmGfAdT*dT; antisense fUfCmUfAmGfCmAfGmAfGmAfAmCfCmUfUmUfGmCdT*dT)",69%,57%,66%,74%,97%,60%,–,–,–,–,–,–,–,–,–,–,–,–
